Laboratory results reported in patent publication US20220273716A1, “POPULATIONS OF NATURAL KILLER CELLS COMPRISING A CD38 CHIMERIC ANTIGEN RECEPTOR” (Celularity Inc., priority 2019, published 2022).
Entries after “also recorded” stand apart in the source; their conditions may differ. Read-outs that look alike come from different tables or passages of the source.

Legend:
CD34+ cells [1] = assay: NK cell expansion from CD34+ cells in three-stage culture with compound; format: cell-based, human; conditions: for expansion, differentiation and cytotoxicity profile versus SR1: PNK-007 culture; for support of NK expansion (and differentiation) / cell expansion compared to SR1: compound 10 μM during first 14 days, Day 35; for cell expansion compared to SR1: SR1 10 μM positive control
Excerpt: (§1) UCB CD34+ cells were cultivated in presence of cytokines including thrombopoietin, SCF, Flt3 ligand, IL-7, IL-15 and IL-2 for 35 days to produce three-stage NK cells, as described in Example 1. Multi-color flow cytometry was used to determine the phenotypic characteristics of three-stage NK cells.
(§2) For biological testing, the compounds were provided to culture to evaluate their effects on NK cell expansion and differentiation. Specifically, donors of CD34+ cells (StemCell Technology) were thawed and expanded in vitro following NK culture protocol. During the first 14 days of the culture, each CRL compounds was dissolved in DMSO and added to the culture at 10 μM concentration. SR1 (at 10 μM) served as a positive control compound, while DMSO alone without any compound served as a negative control. At the end of the culture on Day 35, cell expansion, natural killer (NK) cell differentiation and cytotoxicity of the cells against K562 tumor cell line were characterized. Due to the large number of the compounds, the testing was performed in two experiments, CRL1-11 and CRL 12-22. The same donors were used for each experiment. Positive and negative controls were also included in both experiments.

CD34 cells = assay: CD34 cell expansion at Day 14 of the culture; format: cell-based, human; conditions: compound 10 μM
Method: as §2

K562 tumor cells = assay: Cytotoxicity assay of compound cultured cells against K562 tumor cells; format: cell-based; conditions: 10:1 E:T ratio, both donors
Method: as §2
Cytotoxicity assay was run using compound cultured cells against K562 tumor cells at 10:1 effector to target ratio (FIG. 5) to evaluate cell functions.

CD34+ cells [2] = assay: NK cell differentiation of compound cultured cells (flow cytometry); format: cell-based, human; conditions: compared to SR1
Excerpt: as §1, §2

multiple myeloma = conditions: cited from earlier work

SMILES | expansion, differentiation and cytotoxicity profile versus SR1 (CD34+ cells [1]) | support of NK expansion (and differentiation) (CD34+ cells [1]) | CD34 cell expansion (CD34 cells) | cell expansion compared to SR1 (CD34+ cells [1]) | killing activity compared to cells cultured with SR1 (K562 tumor cells) | CD56+/CD11a+ subpopulation (CD34+ cells [2]) | further results
Fc1cncc(-c2nc(NCCc3c[nH]c4ccccc34)c3occc3n2)c1 [CRL19, N-(2-(1H-indol-3-yl)ethyl)-2-(5-fluoropyridin-3-yl)furo[3,2-d]pyrimidin-4-amine] | very similar expansion, differentiation and cytotoxicity profiles as SR1 | supported cell expansion the best | achieved the highest CD34 cell expansion |  |  |  | 
N#Cc1cncc(-c2nc(NCCc3c[nH]c4ccccc34)c3occc3n2)c1 [CRL22, 5-(4-((2-(1H-indol-3-yl)ethyl)amino)furo[3,2-d]pyrimidin-2-yl)nicotinonitrile] | very similar expansion, differentiation and cytotoxicity profiles as SR1 | supported cell expansion the best | achieved the highest CD34 cell expansion |  |  |  | 
Cc1cncc(-c2nc(NCCc3c[nH]c4ccccc34)c3scc(C(C)C)c3n2)c1 [CRL21, N-(2-(1H-indol-3-yl)ethyl)-7-isopropyl-2-(5-methylpyridin-3-yl)thieno[3,2-d]pyrimidin-4-amine] |  |  |  | slightly less expansion compared to SR1 | increased killing activities | increased CD56+/CD11a+ subpopulation | 
Cc1cncc(-c2nc(NCCc3c[nH]c4ccccc34)c3occc3n2)c1 [CRL20, N-(2-(1H-indol-3-yl)ethyl)-2-(5-methylpyridin-3-yl)furo[3,2-d]pyrimidin-4-amine] | very similar expansion, differentiation and cytotoxicity profiles as SR1 | supported cell expansion the best | achieved the highest CD34 cell expansion |  |  |  | 
CC(C)c1csc2c(NCCc3c[nH]c4ccccc34)nc(-c3cncc(F)c3)nc12 [CRL18, N-(2-(1H-indol-3-yl)ethyl)-2-(5-fluoropyridin-3-yl)-7-isopropylthieno[3,2-d]pyrimidin-4-amine] |  |  |  | slightly less expansion compared to SR1 | increased killing activities | increased CD56+/CD11a+ subpopulation | 
CC(C)c1csc2c(NCCc3c[nH]c4ccccc34)nc(-c3cncc(C#N)c3)nc12 [CRL17, 5-(4-((2-(1H-indol-3-yl)ethyl)amino)-7-isopropylthieno[3,2-d]pyrimidin-2-yl)nicotinonitrile] |  |  |  | slightly less expansion compared to SR1 | increased killing activities | increased CD56+/CD11a+ subpopulation | 
Nc1cccc2c1CN(C1CCC(=O)NC1=O)C2=O (stereo not drawn) [lenalidomide, 3-(4′aminoisoindoline-1′-one)-1-piperidine-2,6-dione] |  |  |  |  |  |  | ORR (VGPR or better) (multiple myeloma; 1 year post ASCT): 48%; ORR (VGPR or better) (multiple myeloma; 2 year post ASCT): 36%; hazard ratio (TTP, vs placebo) (multiple myeloma; 95% CI 0.46-0.71): 0.57; median TTP (multiple myeloma; not accounting for crossover): 57.3 months
CCC(C)Nc1cc(-c2cncc(C#N)c2)nc(NCCc2c[nH]c3ccccc23)n1 (stereo not drawn) [CRL7, 5-(2-((2-(1H-indol-3-yl)ethyl)amino)-6-(sec-butylamino)pyrimidin-4-yl)nicotinonitrile] |  | Except for CRL7 and CRL13, the rest of the compounds all resulted in a NK expansion; also recorded: all the compounds except CRL7 and CRL13 supported PNK-007 expansion and differentiation |  |  |  |  | 
CCC(C)Nc1nc(NCCc2c[nH]c3ccccc23)c2ccccc2n1 (stereo not drawn) [CRL13, N^4-(2-(1H-indol-3-yl)ethyl)-N^2-(sec-butyl)quinazoline-2,4-diamine] |  | Except for CRL7 and CRL13, the rest of the compounds all resulted in a NK expansion; also recorded: all the compounds except CRL7 and CRL13 supported PNK-007 expansion and differentiation |  |  |  |  | 
